From PubChem BioAssay (NCI)
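Results reflect a 48-hour exposure of cells in 96-well plates to compound at five concentrations. The concentration for full growth arrest is given as TGI.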

Columns and labels:
Assay in all cases: inhibition of tumour cell growth, NCI panel, 48 h
PC-3 prostate = test system: PC-3 prostate
NCI-H460 lung = test system: NCI-H460 lung
UO-31 renal = test system: UO-31 renal
OVCAR-8 ovarian = test system: OVCAR-8 ovarian
786-0 renal = test system: 786-0 renal
MDA-MB-231 breast = test system: MDA-MB-231 breast
HCT-116 colon = test system: HCT-116 colon
LOX IMVI melanoma = test system: LOX IMVI melanoma
SK-OV-3 ovarian = test system: SK-OV-3 ovarian
BT-549 breast = test system: BT-549 breast
HCT-15 colon = test system: HCT-15 colon
SK-MEL-28 melanoma = test system: SK-MEL-28 melanoma
KM12 colon = test system: KM12 colon
NCI/ADR-RES ovarian = test system: NCI/ADR-RES ovarian
HOP-92 NSCLC = test system: HOP-92 NSCLC
HCC-2998 colon = test system: HCC-2998 colon

SMILES | TGI (PC-3 prostate) | TGI (NCI-H460 lung) | TGI (UO-31 renal) | TGI (OVCAR-8 ovarian) | TGI (786-0 renal) | TGI (MDA-MB-231 breast) | TGI (HCT-116 colon) | TGI (LOX IMVI melanoma) | TGI (SK-OV-3 ovarian) | TGI (BT-549 breast) | TGI (HCT-15 colon) | TGI (SK-MEL-28 melanoma) | TGI (KM12 colon) | TGI (NCI/ADR-RES ovarian) | TGI (HOP-92 NSCLC) | TGI (HCC-2998 colon)
CC1(C)CCCCCCCCCC2CC2CCC(C)(C)C1=O (centres undefined) | 70.9 µM | 46 µM | 36.9 µM | 74.5 µM | 31.5 µM | 43.9 µM | 31.8 µM | 34.9 µM | > 100 µM | 87.4 µM | 30.1 µM | 72.8 µM | 34.9 µM | 44.3 µM | 62.7 µM | –
CCCCC1(O)CC2CC1C(C)C2(C)C (centres undefined) | > 100 µM | – | > 100 µM | > 100 µM | > 100 µM | > 100 µM | > 100 µM | > 100 µM | > 100 µM | > 100 µM | > 100 µM | > 100 µM | > 100 µM | > 100 µM | – | > 100 µM
O=C1CC2CC(CC3(CO3)C2)C1F (centres undefined) | > 100 µM | > 100 µM | > 100 µM | > 100 µM | > 100 µM | > 100 µM | > 100 µM | > 100 µM | > 100 µM | – | > 100 µM | > 100 µM | > 100 µM | > 100 µM | > 100 µM | > 100 µM
O=C(NCCCN(CCCCN(CCCNC(=O)c1cc(S(=O)(=O)O)cc(O)c1O)C(=O)c1cc(S(=O)(=O)O)cc(O)c1O)C(=O)c1cc(S(=O)(=O)O)cc(O)c1O)c1cc(S(=O)(=O)O)cc(O)c1O | > 100 µM | > 100 µM | > 100 µM | > 100 µM | > 100 µM | > 100 µM | > 100 µM | > 100 µM | – | > 100 µM | > 100 µM | > 100 µM | > 100 µM | > 100 µM | > 100 µM | > 100 µM
COC(=O)/N=[N+](\[O-])C(c1ccccc1)c1ccccc1 | > 100 µM | > 100 µM | 70.9 µM | > 100 µM | > 100 µM | > 100 µM | > 100 µM | > 100 µM | > 100 µM | > 100 µM | > 100 µM | > 100 µM | > 100 µM | > 100 µM | – | > 100 µM
O=c1[nH]nc(Cc2ccccc2)n1/N=C/c1ccc([N+](=O)[O-])cc1 | > 100 µM | > 100 µM | > 100 µM | > 100 µM | > 100 µM | > 100 µM | > 100 µM | > 100 µM | – | > 100 µM | > 100 µM | > 100 µM | > 100 µM | > 100 µM | > 100 µM | > 100 µM
CN1CCN(Cc2nc3c(s2)CCc2sccc2-3)CC1 | > 100 µM | > 100 µM | > 100 µM | > 100 µM | > 100 µM | > 100 µM | > 100 µM | – | > 100 µM | > 100 µM | > 100 µM | 73 µM | > 100 µM | > 100 µM | – | > 100 µM
CCOC(=O)N/N=C(\CC)OCC | > 100 µM | > 100 µM | > 100 µM | > 100 µM | > 100 µM | > 100 µM | > 100 µM | > 100 µM | > 100 µM | > 100 µM | > 100 µM | – | > 100 µM | > 100 µM | – | > 100 µM
O=C(CN=C(CN(c1ccccc1)c1ccccc1)Oc1ccc(Cl)cc1Cl)n1ccnc1 | > 100 µM | > 100 µM | > 100 µM | > 100 µM | > 100 µM | > 100 µM | > 100 µM | > 100 µM | > 100 µM | > 100 µM | > 100 µM | > 100 µM | > 100 µM | > 100 µM | > 100 µM | –
CCOc1cccc(-c2cc(=O)c3cc4c(cc3[nH]2)OCO4)c1 | > 100 µM | > 61.8 µM | 35.2 µM | 2.7 µM | 7.06 µM | – | 7.85 µM | > 100 µM | – | > 100 µM | 0.52 µM | > 100 µM | – | 0.294 µM | 6.04 µM | 0.695 µM
CCOC(=O)C(NC(=O)CC)(Nc1ccc(F)cc1F)C(F)(F)F (centres undefined) | > 100 µM | – | > 100 µM | > 100 µM | > 100 µM | – | > 100 µM | > 100 µM | > 100 µM | > 100 µM | > 100 µM | > 100 µM | – | > 100 µM | – | > 100 µM
O=c1[nH]c2c(c(=O)[nH]1)C(c1ccc([N+](=O)[O-])cc1)c1c([nH]c(=O)[nH]c1=O)O2 | > 100 µM | > 100 µM | > 100 µM | > 100 µM | > 100 µM | > 100 µM | > 100 µM | – | > 100 µM | > 100 µM | > 100 µM | > 100 µM | > 100 µM | – | – | –
Cc1cn(C2CCN(CC3COC(C)(C)O3)O2)c(=O)[nH]c1=O (centres undefined) | > 100 µM | > 100 µM | > 100 µM | > 100 µM | > 100 µM | > 100 µM | > 100 µM | > 100 µM | > 100 µM | > 100 µM | > 100 µM | > 100 µM | > 100 µM | > 100 µM | > 100 µM | –
O=C1[C@@H](O)[C@@H]2CCCC[C@@]23CCCN13 | > 100 µM | > 100 µM | > 100 µM | > 100 µM | > 100 µM | > 100 µM | > 100 µM | > 100 µM | > 100 µM | – | > 100 µM | > 100 µM | > 100 µM | > 100 µM | > 100 µM | > 100 µM
CC1=N[C@@](C)(C2CC3C=CC2C3=O)COC1=O (some centres undefined) | > 100 µM | > 100 µM | > 100 µM | > 100 µM | > 100 µM | > 100 µM | > 100 µM | – | > 100 µM | > 100 µM | – | > 100 µM | > 100 µM | – | > 100 µM | > 100 µM
OCC1CCCC1O (centres undefined) | > 100 µM | > 100 µM | > 100 µM | > 100 µM | > 100 µM | > 100 µM | > 100 µM | – | – | > 100 µM | > 100 µM | > 100 µM | > 100 µM | > 100 µM | > 100 µM | > 100 µM
C=CC1(c2ccc3ccccc3c2)OCC(CC)O1 (centres undefined) | > 100 µM | > 100 µM | > 100 µM | > 100 µM | > 100 µM | 0.469 µM | > 100 µM | 44.3 µM | > 100 µM | – | > 100 µM | > 100 µM | > 100 µM | > 100 µM | 75.2 µM | > 100 µM
C[N+]12C=CC=C1C(N1CCCC1)c1scc(-c3ccc(F)cc3)c12 (centres undefined) | > 100 µM | – | > 100 µM | > 100 µM | > 100 µM | > 100 µM | > 100 µM | > 100 µM | > 100 µM | 88 µM | – | > 100 µM | > 100 µM | > 100 µM | – | –
Cc1ccccc1Nc1nc(NNC(=O)Cc2ccccc2)nc(NNC(=O)c2ccncc2)n1 | – | > 10 µM | > 10 µM | > 10 µM | > 10 µM | > 10 µM | – | > 10 µM | > 10 µM | > 10 µM | > 10 µM | > 10 µM | > 10 µM | > 10 µM | > 10 µM | > 10 µM
CC(=O)n1[nH]c(=O)n(-c2ccccc2)c1=O | > 100 µM | > 100 µM | > 100 µM | > 100 µM | > 100 µM | > 100 µM | > 100 µM | > 100 µM | > 100 µM | > 100 µM | > 100 µM | > 100 µM | > 100 µM | > 100 µM | – | > 100 µM
Cc1cc(S(=O)(=O)NC(=NCCc2ccccc2)NN)c(S)cc1Cl | > 100 µM | – | 56.9 µM | 35.2 µM | > 100 µM | > 100 µM | 71.1 µM | > 100 µM | 53.7 µM | 66.2 µM | 37.9 µM | 71.3 µM | 66.7 µM | 57.8 µM | – | 50.6 µM
COc1ccc2c(c1OC)C(=O)N/C2=C\c1c(CCN(C)C)cc2c(c1OC)OCO2 | > 100 µM | > 100 µM | – | > 100 µM | > 100 µM | > 100 µM | > 100 µM | – | > 100 µM | > 100 µM | > 100 µM | > 100 µM | > 100 µM | – | > 100 µM | > 100 µM
O=[N+]([O-])C(/C=C(\Cl)[N+](=O)[O-])=C(N1CCCCC1)N1CCCCC1 | > 100 µM | > 100 µM | 75.7 µM | > 100 µM | > 100 µM | > 100 µM | 62.4 µM | > 100 µM | > 100 µM | – | 68 µM | > 100 µM | > 100 µM | > 100 µM | > 100 µM | > 100 µM
Cc1cc2c(cc1Cl)SC(NNC1=NCCN1)=NS2(=O)=O | > 10 µM | > 10 µM | > 10 µM | > 10 µM | > 10 µM | > 10 µM | > 10 µM | > 10 µM | > 10 µM | > 10 µM | > 10 µM | > 10 µM | > 10 µM | > 10 µM | – | > 10 µM
CC1=CC(=O)N(n2c(-c3ccccc3)n[nH]c2=O)C1=O | > 100 µM | > 100 µM | > 100 µM | > 100 µM | > 100 µM | > 100 µM | > 100 µM | > 100 µM | > 100 µM | > 100 µM | > 100 µM | > 100 µM | > 100 µM | > 100 µM | – | > 100 µM
